Laboratory results reported in US20090269330A1, “FATTY ACID TRIGLYCERIDES FOR MAKING BIOCOMPATIBLE COATINGS” (ZISCOAT NV, priority 2006, published 2009).

Test: In vitro drug release from enzymatically transesterified triglyceride coating on stainless steel samples
Type: physicochemical
Details: 5 weight % paclitaxel in enzymatically transesterified triglyceride coating; PBS with 0.02% (w/v) sodium azide, 37° C.; after 5 weeks; HPLC
Procedure: Transesterified triglyceride mixtures were made using the following procedure: • 30 weight % tristearin, 30 weight % triolein, 40 weight % trilinolein are put in a vacuum furnace at 70° C. during 1 hour • the mixture is stirred during 30 minutes at 75° C. • 1% of 1,3 specific lipase (lipozyme) is added to the mixture at 75° C. during 1 hour. • Filtration over Whatman no. 4 filter. The slip melting point of the resulting mixture was 60° C.
5 weight % of paclitaxel (taxol) and acetone were added to this triglyceride mixture, heated to 50° C. and stirred until homogeneous. Stainless steel samples were dipped into the solution followed by air-drying. The samples were put into 5 ml of release medium (PBS with 0.02% (w/v) sodium azide) at 37° C. and continuously shaken with a rocking table. At different time points, samples were put in a new vial with fresh release medium. The medium of the previous vials were analyzed with HPLC to determine the concentration of paclitaxel that was released. After the test, the remaining paclitaxel was liberated from the coating on the stainless steel samples by dissolving the coating in acetone at 50° C.

CC(=O)O[C@H]1C(=O)[C@@]2(C)[C@H]([C@H](OC(=O)c3ccccc3)[C@]3(O)C[C@H](OC(=O)[C@H](O)[C@@H](NC(=O)c4ccccc4)c4ccccc4)C(C)=C1C3(C)C)[C@]1(OC(C)=O)CO[C@@H]1C[C@@H]2O [paclitaxel]
percentage of drug released from coating: 75%
